Experimental data from US20230027854A1, “ISOXAZOLE DERIVATIVES TARGETING TACC3 AS ANTICANCER AGENTS” (A2A Pharmaceuticals, inc., priority 2019, published 2023).

Assays:
[1] = Stability in mouse liver microsomes; format: in vitro ADME
[2] = tested on: JIMT-1, MDA-MB-436, MDA-MB-157 and BT-474 T-DM1R cell lines; test: Cell viability (SRB) of breast cancer cell lines, three TACC3 inhibitors compared; format: cell-based, human; conditions: all cell lines tested, 72 hours
Description: JIMT-1, MDA-MB-436, MDA-MB-157 and BT-474 T-DM1R cell lines were tested with respect to their response to these three drugs. […] Although higher KHS101 doses was included, which were used by others (Campo & Breuer, 2018), an induction of these markers was only observed at very high doses.

JIMT-1 cells [3] = test: Colony formation assay; format: cell-based, human; conditions: 12 days
Description: For monolayer culture, single-cell suspensions of JIMT-1 cells (3×10^3 cells/well) were plated in a 12-well plate. […] In order to test the colony formation capacity of MCF-12A cells during TACC3 overexpression, MCF-12A cells (2×10^5) were seeded into 6-well plates and TACC3 trasnfection was performed next day. 48 h following transfection, cells were counted and 1×10^3 cells/well were plated into 12-well plates. For both experimental setups, the media were refreshed every 4 days, and cells were incubated for 12 days. Cells were then fixed with 2% paraformaldehyde for 15 min and stained with 1% crystal violet (Merck, Darmstadt, Germany) for 15 min at RT. Surviving colonies (composed of at least 50 cells) were counted with ImageJ software (NIH).

CYP2C9 = CYP2C9 (Homo sapiens, UniProt P11712); conditions: read-out: IC50 CYP2C9; human liver microsomes
Sequence of CYP2C9 (P11712 whole entry): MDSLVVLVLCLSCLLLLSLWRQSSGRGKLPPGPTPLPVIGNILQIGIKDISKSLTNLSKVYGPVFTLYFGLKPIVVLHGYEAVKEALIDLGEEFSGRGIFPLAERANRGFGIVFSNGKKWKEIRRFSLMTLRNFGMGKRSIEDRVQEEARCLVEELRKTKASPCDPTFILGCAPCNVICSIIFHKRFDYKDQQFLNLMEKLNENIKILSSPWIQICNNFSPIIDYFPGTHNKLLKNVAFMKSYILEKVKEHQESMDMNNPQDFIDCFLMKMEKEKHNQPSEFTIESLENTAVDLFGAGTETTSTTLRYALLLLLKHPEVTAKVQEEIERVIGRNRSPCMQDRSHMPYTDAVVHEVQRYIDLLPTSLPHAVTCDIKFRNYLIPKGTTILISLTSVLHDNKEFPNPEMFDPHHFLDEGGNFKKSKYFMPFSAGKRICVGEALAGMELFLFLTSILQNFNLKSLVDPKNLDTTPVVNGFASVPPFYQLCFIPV

TACC3 [4] = target: T1, TACC3 (Homo sapiens, UniProt Q9Y6A5); test: Drug affinity responsive target stability (DARTS) with JIMT-1 cell protein extracts; format: binding; parameters: endogenous in cells; host or cells: JIMT-1; conditions: 10 μM
Excerpt: (§1) DARTS is a label free-strategy to identify potential direct protein targets for small molecules and is based on stabilization and protection from proteolysis of the target protein upon binding to small molecules (Lomenick, Jung et al. 2011, Pai, Lomenick et al. 2015).

4T1-Luc2 = 4T1-Luc2 lung metastasis model; format: in vivo, mice
Description: Next, to examine the effects of TACC3 inhibition on metastatic growth, an aggressive murine mammary tumor cells, 4T1-Luc2 (luciferase labelled), were injected intravenously to immunocompetent female mice. […] Metastatic outgrowth was monitored with in vivo imaging system (IVIS) by measuring bioluminescence.
Highly aggressive and metastatic 4T1-Luc2 (luciferase labelled) cells were prepared in PBS as 1×10^6 cells/mouse and injected intravenously to Balb/c female mice. Metastasis development was monitored using in vivo imaging system (IVIS) and bioluminescence was quantified regularly. […] Survival was calculated when mice died.

TACC3 [5] = target: T1, TACC3; test: Cellular thermal shift assay (CETSA) in intact JIMT-1 cells; format: binding; parameters: endogenous in cells; host or cells: JIMT-1; conditions: 1 μM, 6 h
Excerpt: Protein thermal melting curves are also showing a thermal shift between vehicle and compound 5 treated band intensities. This interaction was also validated with isothermal titration calorimetry (ITC). […] DARTS is a label free-strategy to identify potential direct protein targets for small molecules and is based on stabilization and protection from proteolysis of the target protein upon binding to small molecules (Lomenick, Jung et al. 2011, Pai, Lomenick et al. 2015).
After treatment, cell pellets were resuspended in Tris-buffered saline (TBS) containing protease and phosphatase inhibitors. The cell suspension was divided into 6 PCR tubes and heated for 5 min to 45, 46, 47, 48, 49, 50° C. Subsequently, cells were lysed by three repeated freeze-thaw cycles with liquid nitrogen. Soluble proteins were collected with centrifugation at 20,000 g for 20 min at 4° C. and analyzed by sodium dodecyl sulfate polyacrylamide gel electrophoresis (SDS-PAGE) followed by western blot analysis.

JIMT-1 cells [6] = test: Immunofluorescence of aberrant spindle formation; format: cell-based, human; conditions: highest dose, 12 h
Excerpt: The presence of spindle defects activates the spindle assembly checkpoint (SAC) that further leads to mitotic arrest to provide the necessary time for repairing the spindle defects (Musacchio and Salmon 2007). […] To further test the contribution of an active SAC signaling to compound 5-induced mitotic arrest, DNA damage and cell death, we inhibited the SAC kinase, Mps1 using a specific inhibitor (TC Mps1 (Choi, Min et al. 2017)) in compound 5-treated cells, and analyzed the expression of relevant markers.
Immunofluorescence staining of JIMT-1 cells were performed as previously described (Cizmecioglu, Arnold et al. 2010). Basically, 1.5×10^5 JIMT-1 cells/well were seeded on glass coverslip in 6-well plates. […] Then, they are fixed with ice-cold methanol for 10 min at −20° C. Cells were then blocked with 3% BSA in PBS solution for 1 hour at RT and incubated with primary and secondary antibodies for 1 hour at RT. Cells were counter stained with DAPI for 5 min (0.01 μg/ml). Lastly, cover slides were mounted using ImmunoHistomounth (Santa Cruz). Images were taken with an upright fluorescent microscope equipped with DIC prisms (upright).

[7] = Log D, octanol/sodium phosphate buffer; format: physicochemical; conditions: octanol/sodium phosphate buffer (50 mM, pH 7.4); read-out: log D7.4
TACC3 [8] = target: T1, TACC3; test: Isothermal titration calorimetry (ITC) of TACC3 into compound 5; format: binding; parameters: purchased Origene TP310754; conditions: 25° C.
Description: as §1
Titrations were carried out using Microcal 200 equipment (GE Healthcare, Austria) at 25° C. For each titration, 10 injections were made with 6 min spacing. The reference power was set at 2 μcal/sec, and the sample cell was continuously stirred at 500 rpm. In order to assess the binding efficiency between drug and protein, background data obtained by protein injected into buffer alone was subtracted from the experimental isotherms. The data was analyzed using Origin 7 Software provided along with the ITC200, and binding parameters such as association constant (Ka), number of binding sites (N) and enthalpy (ΔH) were calculated.

With `COc1ccc(-c2cc(Nc3ccnc(N4CCOCC4)n3)on2)cc1` [Compound 5] the “stability in mouse liver microsomes” value [1] was “low stability”, the “IC50 values compared with KHS101 and SPL-B” value [2] was “significantly lower IC50 values” and the “average colony number compared with other two inhibitors at the same doses” value (JIMT-1 cells [3]) was “significantly lower”. For the same compound, the IC50 (CYP2C9) was 2.63 µM, the “stabilization of TACC3 protein in the presence of pronase” value (TACC3 [4]) was “TACC3 protein was stabilized” and the “metastatic growth compared to vehicle” value (4T1-Luc2; 50 mg/kg daily orally) was “impair metastatic growth”. For the same compound, the overall survival (4T1-Luc2; 50 mg/kg daily orally) was “significantly improved mice overall survival”, the median survival (4T1-Luc2; 50 mg/kg every day orally, vehicle 19 days) was 28 days and the “stabilization of cellular TACC3 upon temperature increase” value (TACC3 [5]) was “considerably stabilized cellular TACC3”. The “frequency of multipolar spindles” value (JIMT-1 cells [6]) was 73.4%, the logD [7] was 2.3 and the Kd (TACC3 [8]) was 0.0015 µM. For the same compound, the “N (number of binding sites)” value (TACC3 [8]) was 0.704, the ΔH (TACC3 [8]) was 49290 kcal/mol and the ΔS (TACC3 [8]) was 1.65E5 cal/mol/deg.
